Test [1] deals with constitutive active colorectal cancer cell (CRC) Wnt pathway (HCT116-TOP). Kind of test: Cellular reporter assay, HCT116 Super TopFlash (TOP), constitutive active Wnt pathway. Type of test: cell-based. Particulars: Homo sapiens, HCT-116; HCT116 Super TopFlash reporter cells, luciferase expression, 36 hours incubation, dilution series 50 μM to 15 nM. Here is the method:
In order to discover and characterize small molecules which inhibit the constitutive active colorectal cancer cell (CRC) Wnt pathway, a cellular reporter assay was employed. The corresponding assay cell was generated by transfection of the colorectal cancer cell line HCT116 (ATCC, #CCL-247) with the Super TopFlash vector (Morin, Science 275, 1997, 1787-1790; Molenaar et al., Cell 86 (3), 1996, 391-399). The HCT116 cell line is cultivated at 37° C. and 5% CO2 in DMEM/F-12 (Life Technologies, #11320-074), supplemented with 2 mM glutamine, 20 mM HEPES, 1.4 mM pyruvate, 0.15% Na-bicarbonate and 10% foetal bovine serum (GIBCO, #10270), this cancer cell line is pathophysiological relevant since it carries a deletion of position S45 in the β-catenin gene, leading to constitutive active Wnt signaling. Stable transfectants were generated by cotransfection with pcDNA3 and selection of stable transfected cells with 1 mg/ml G418.
(§1) In preparation of the assay, the two cell lines were plated 24 hours before at 10000 cells per well of a 384 micro titre plate (MTP) in 30 μL growth medium. Selective inhibitory activity for small molecules on the mutated Wnt pathway was determined after parallel incubation of both (TOP and FOP) HCT116 reporter cell lines with a compound dilution series from 50 μM to 15 nM in steps of 3.16-fold dilutions in CAFTY buffer (130 mM NaCI, 5 mM KCI, 20 mM HEPES, 1 mM MgCl2, 5 mM NaHCO3, pH 7.4) containing 2 mM Ca^2+ and 0.01% BSA. The compounds were thereby serially prediluted in 100% DMSO and thereafter in addition 50 fold into the CAFTY compound dilution buffer (described above). From this dilution 10 μL were added to the cells in 30 μL growth medium and incubated for 36 hours at 37° C. and 5% CO2. Thereafter luciferase assay buffer (1:1 mixture of luciferase substrate buffer (20 mM Tricine, 2.67 mM MgSO4, 0.1 mM EDTA, 4 mM DTT, 270 μM Coenzyme A, 470 μM Luciferin, 530 μM ATP, ph adjusted to pH 7.8 with a sufficient volume of 5M NaOH) and Triton buffer (30 mL Triton X-100, 115 mL glycerol, 308 mg Dithiothreitol, 4.45 g Na2HPO4. 2 H2O, 3.03 g TRIS HCl, ad 1I H2O, pH 7.8) was added as equal volume to the compound solution on the cells to determine luciferase expression as a measure of Wnt signaling activity in a luminometer.
Background: Reporter assays use an easily measured gene product as a stand-in for the process of interest.

A further test concerns HCT116-FOP. Kind of test: Control reporter assay, HCT116 cells with FOP control vector (non-functional TCF elements). The conditions noted are these: Homo sapiens, HCT-116, luciferase expression, 36 hours incubation, dilution series 50 μM to 15 nM, read-out: HCT116-FOP IC50 [M] mol/L]. The test is classed as cell-based. Here is the method:
In a parallel approach, HCT116 cells were cotransfected with the FOP control vector and pcDNA3. The FOP vector is identical to the TOP construct, but it contains instead of functional TCF elements a randomized, non-functional sequence. For this transfection a stable transfected cell line was generated as well.
as §1

Molecules are shown by their SMILES.

As for `CN1CCN(CC(=O)Nc2cc(C(=O)Nc3nnc(N4CCCCC4)s3)ccc2OC(F)(F)F)CC1` [Example 1, 3-{[(4-methylpiperazin-1-yl)pacetyl]amino}-N-[5-(piperidin-1-yl)-1,3,4-thiadiazol-2-yl]-4-(trifluoromethoxy)benzamide], the IC50 in test [1] is 0.36 µM; with HCT116-FOP, not below 5e-05 M.
The matching figures for `CN1CCN(CC(=O)Nc2cc(C(=O)Nc3nnc(N4CCN(C(=O)OC(C)(C)C)CC4)s3)ccc2OC(F)(F)F)CC1` [Example 2]: 0.0415 µM and not below 5e-05 M.
The matching figures for `CC(C)(C)OC(=O)N1CCN(c2nnc(NC(=O)c3ccc(OC(F)(F)F)c(NC(=O)CN4CCOCC4)c3)s2)CC1` [Example 3, tert-butyl 4-[5-({3-[(morpholin-4-ylacetyl)amino]-4-(trifluoromethoxy)benzoyl}amino)-1,3,4-thiadiazol-2-yl]piperazine-1-carboxylate]: 0.086 µM and not below 5e-05 M.
The matching figures for `CN1CCN(CC(=O)Nc2cc(C(=O)Nc3nnc(N4CCCC4)s3)ccc2OC(F)(F)F)CC1` [Example 4, 3-{[(4-methylpiperazin-1-yl)pacetyl]amino}-N-[5-(pyrrolidin-1-yl)-1,3,4-thiadiazol-2-yl]-4-(trifluoromethoxy)benzamide]: 0.492 µM and not below 5e-05 M.
For `CN1CCN(CC(=O)Nc2cc(C(=O)Nc3nnc(C4CCCCC4)s3)ccc2OC(F)(F)F)CC1` [Example 5, N-(5-cyclohexyl-1,3,4-thiadiazol-2-yl)-3-{[(4-methylpiperazin-1-yl)pacetyl]amino}-4-(trifluoromethoxy)benzamide], the IC50 is 0.27 µM in test [1] and not below 5e-05 M with HCT116-FOP.
The matching figures for `COC(=O)N1CCN(c2nnc(NC(=O)c3ccc(OC(F)(F)F)c(NC(=O)CN4CCN(C)CC4)c3)s2)CC1` [Example 6, methyl 4-(5-{[3-{[(4-methylpiperazin-1-yl)pacetyl]amino}-4-(trifluoromethoxy)benzoyl]amino}-1,3,4-thiadiazol-2-yl)ppiperazine-1-carboxylate]: 0.0655 µM and 4.65e-05 M.
For `CC1CCN(c2nnc(NC(=O)c3ccc(OC(F)(F)F)c(NC(=O)CN4CCN(C)CC4)c3)s2)CC1` [Example 7], the IC50 was 0.11 µM in test [1] and not below 5e-05 M in the test on HCT116-FOP.
The like results for `CN1CCN(CC(=O)Nc2cc(C(=O)Nc3nnc(N4CCC(C)(O)CC4)s3)ccc2OC(F)(F)F)CC1` [Example 8, N-[5-(4-hydroxy-4-methylpiperidin-1-yl)-1,3,4-thiadiazol-2-yl]-3-{[(4-methylpiperazin-1-yl)pacetyl]amino}-4-(trifluoromethoxy)benzamide] were, in that order, 0.655 µM and not below 5e-05 M.
The like results for `CN1CCN(CC(=O)Nc2cc(C(=O)Nc3nnc(N4CCN(C(=O)C5CC5)CC4)s3)ccc2OC(F)(F)F)CC1` [Example 9] were, in that order, 0.83 µM and 1.8e-05 M.
As to `CC(C)(O)C1CCN(c2nnc(NC(=O)c3ccc(OC(F)(F)F)c(NC(=O)CN4CCOCC4)c3)s2)CC1` [Example 10], the IC50 in test [1] was 0.84 µM; with HCT116-FOP, not below 5e-05 M.
The like results for `COC1CCN(c2nnc(NC(=O)c3ccc(OC(F)(F)F)c(NC(=O)CN4CCN(C)CC4)c3)s2)CC1` [Example 11, N-{5-(4-methoxypiperidin-1-yl)-1,3,4-thiadiazol-2-yl]-3-{[(4-methylpiperazin-1-yl)acetyl]amino}-4-(trifluoromethoxy)benzamide] were, in that order, 0.22 µM and not below 5e-05 M.
The like results for `CN1CCN(CC(=O)Nc2cc(C(=O)Nc3nnc(N4CCC(C)(C)CC4)s3)ccc2OC(F)(F)F)CC1` [Example 12, 4-(2-{[5-{[5-(4,4-dimethylpiperidin-1-yl)-1,3,4-thiadiazol-2-yl]carbamoyl}-2-(trifluoromethoxy)phenyl]amino}-2-oxoethyl)-1-methylpiperazin-1-ium hexafluorophosphate] were, in that order, 0.26 µM and 1.5e-05 M.
The like results for `CCOC(=O)N1CCN(c2nnc(NC(=O)c3ccc(OC(F)(F)F)c(NC(=O)CN4CCOCC4)c3)s2)CC1` [Example 13, ethyl 4-[5-({3-[(morpholin-4-yl-acetyl)amino]-4-(trifluoromethoxy)benzoyl}-amino)-1,3,4-thiadiazol-2-yl]piperazine-1-carboxylate] were, in that order, 1.4 µM and not below 5e-05 M.
For `CN1CCN(CC(=O)Nc2cc(C(=O)Nc3nnc(N4CCC(O)CC4)s3)ccc2OC(F)(F)F)CC1` [Example 14, N-[5-(4-hydroxypiperidin-1-yl)-1,3,4-thiadiazol-2-yl]-3-{[(4-methylpiperazin-1-yl)acetyl]amino}-4-(trifluoromethoxy)benzamide], the values for the IC50 (in test [1]; with HCT116-FOP) were 1.45 µM and not below 5e-05 M, respectively.
As to `CN(C)S(=O)(=O)N1CCN(c2nnc(NC(=O)c3ccc(OC(F)(F)F)c(NC(=O)CN4CCOCC4)c3)s2)CC1` [Example 15, N-{5-[4-(dimethylsulfamoyl)-piperazin-1-yl]-1,3,4-thiadiazol-2-yl}-3-[(morpholin-4-ylacetyl)-amino]-4-(trifluoromethoxy) benzamide], the IC50 in test [1] is 1.99 µM; in the test with HCT116-FOP, not below 5e-05 M.
Consider `CN1CCN(CC(=O)Nc2cc(C(=O)Nc3nnc(N4CCN(C(=O)N(C)C)CC4)s3)ccc2OC(F)(F)F)CC1` [Example 16, N,N-dimethyl-4-(5-{[3-{[(4-methylpiperazin-1-yl)acetyl]-amino}-4-(trifluoromethoxy)-benzoyl]amino}-1,3,4-thiadiazol-2-yl)piperazine-1-carboxamide], for which the IC50 is 2.1 µM in test [1] and not below 5e-05 M with HCT116-FOP.
The matching figures for `CCOC(=O)N1CCN(c2nnc(NC(=O)c3ccc(OC(F)(F)F)c(NC(=O)CN4CCN(C)CC4)c3)s2)CC1` [Example 17, ethyl 4-(5-{[3-{[(4-methylpiperazin-1-yl)acetyl]-amino}-4-(trifluoromethoxy)-benzoyl]amino}-1,3,4-thiadiazol-2-yl)piperazine-1-carboxylate]: 2.85 µM and 4.1e-05 M.
The like results for `CC(=O)N1CCN(c2nnc(NC(=O)c3ccc(OC(F)(F)F)c(NC(=O)CN4CCN(C)CC4)c3)s2)CC1` [Example 18, N-[5-(4-acetylpiperazin-1-yl)-1,3,4-thiadiazol-2-yl]-3-{[(4-methylpiperazin-1-yl)-acetyl]amino}-4-(trifluoromethoxy)benzamide] were, in that order, 3.15 µM and not below 5e-05 M.
The like results for `CN1CCN(CC(=O)Nc2cc(C(=O)Nc3nnc(N4CCN(S(=O)(=O)N(C)C)CC4)s3)ccc2OC(F)(F)F)CC1` [Example 19, N-{5-[4-(dimethylsulfamoyl)-piperazin-1-yl]-1,3,4-thiadiazol-2-yl}-3-{[(4-methylpiperazin-1-yl)acetyl]-amino}-4-(trifluoromethoxy)-benzamide] were, in that order, 3.8 µM and not below 5e-05 M.
In the case of `O=C(CN1CCOCC1)Nc1cc(C(=O)Nc2nnc(N3CCN(C(=O)C4CC4)CC3)s2)ccc1OC(F)(F)F` [Example 20, N-{5-[4-(cyclopropylcarbonyl)-piperazin-1-yl]-1,3,4-thiadiazol-2-yl}-3-[(morpholin-4-ylacetyl)amino]-4-(trifluoromethoxy)benzamide], the figures for the IC50 (in test [1]; in the test on HCT116-FOP) were 3.91 µM and not below 5e-05 M, respectively.
The matching figures for `COC(=O)C1CCN(c2nnc(NC(=O)c3ccc(OC(F)(F)F)c(NC(=O)CN4CCOCC4)c3)s2)CC1` [Example 21, methyl 1-[5-({3-[(morpholin-4-ylacetyl)amino]-4-(trifluoromethoxy)benzoyl}-amino)-1,3,4-thiadiazol-2-yl]-piperidine-4-carboxylate]: 4.1 µM and not below 5e-05 M.
The matching figures for `COC(=O)C1CCN(c2nnc(NC(=O)c3ccc(OC(F)(F)F)c(NC(=O)CN4CCN(C)CC4)c3)s2)CC1` [Example 22, methyl 1-(5-{[3-{[(4-methyl-piperazin-1-yl)acetyl]amino}-4-(trifluoromethoxy)benzoyl]-amino}-1,3,4-thiadiazol-2-yl)-piperidine-4-carboxylate]: 4.3 µM and not below 5e-05 M.

(Values after patent US20180044306A1, “1,3,4-THIADIAZOL-2-YL-BENZAMIDE DERIVATIVES AS INHIBITORS OF THE WNT SIGNALLING PATHWAY” (Bayer Pharma Aktiengesellschaft, priority 2015, published 2018).)
